Results: PubChem BioAssay AID256 (DTP/NCI, 2004)
Inconclusive results and toxic doses are left out.

System: CD2F1 mice, L1210 leukemia ip, survival T/C
Assay: NCI In Vivo Anticancer Drug Screen. Data for tumor model L1210 Leukemia (intraperitoneal) in CD2F1 (CDF1) mice
Settings: endpoint: mean survival time, higher = longer survival
Method in brief: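 Implant tumor; dose compound or vehicle; measure endpoint in both groups; report treated divided by control.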

[1] = dose: 100.0 mg/kg/injection, schedule: Q01DX001 (ip), vehicle: saline
[2] = dose: 200.0 mg/kg/injection, schedule: Q01DX001 (ip), vehicle: saline
[3] = dose: 400.0 mg/kg/injection, schedule: Q01DX001 (ip), vehicle: saline
[4] = dose: 100.0 mg/kg/injection, schedule: Q04DX003 (ip), vehicle: saline with Tween-80
[5] = dose: 200.0 mg/kg/injection, schedule: Q04DX003 (ip), vehicle: saline with Tween-80
[6] = dose: 400.0 mg/kg/injection, schedule: Q04DX003 (ip), vehicle: saline with Tween-80
[7] = dose: 100.0 mg/kg/injection, schedule: Q01DX009 (ip), vehicle: saline with Tween-80
[8] = dose: 400.0 mg/kg/injection, schedule: Q01DX009 (ip), vehicle: saline with Tween-80
[9] = dose: 100.0 mg/kg/injection, schedule: Q01DX009 (ip), vehicle: saline
[10] = dose: 200.0 mg/kg/injection, schedule: Q01DX009 (ip), vehicle: saline

O=C(O)CS(=O)(=O)O
T/C (dose: 50.0 mg/kg/injection, schedule: Q04DX002 (ip), vehicle: saline): 100 % of control
T/C (dose: 100.0 mg/kg/injection, schedule: Q04DX002 (ip), vehicle: saline): 100 % of control
T/C (dose: 200.0 mg/kg/injection, schedule: Q04DX002 (ip), vehicle: saline): 100 % of control

Nc1nc2c(c(=O)[nH]1)N(CCCCCO)C(CNc1ccc(C(=O)NC(CCC(=O)O)C(=O)O)cc1)CN2 (configuration not stated)
T/C [1]: 97 % of control
T/C [2]: 103 % of control
T/C [3]: 97 % of control

CCCCCCCCCCOC(=O)Nc1cccc(O)c1
T/C [4]: 95 % of control
T/C [5]: 95 % of control
T/C [6]: 98 % of control

Cc1[nH]c(=S)[nH]c(=O)c1CCS
T/C [1]: 104 % of control
T/C [2]: 101 % of control
T/C [3]: 98 % of control

S=C(Nc1ccccc1)Nc1ccc(NC(=S)Nc2ccccc2)cc1
T/C [7]: 86 % of control
T/C [4]: 92 % of control
T/C [5]: 92 % of control
T/C [8]: 94 % of control
T/C [6]: 86 % of control

NC(=O)C(c1ccccc1)N1CCOCC1 (configuration not stated)
T/C [9]: 100 % of control
T/C [10]: 101 % of control
T/C (dose: 400.0 mg/kg/injection, schedule: Q01DX009 (ip), vehicle: saline): 105 % of control

O=C1C(=C(C(F)(F)F)C(F)(F)F)CCc2ccc([N+](=O)[O-])cc21
T/C [7]: 102 % of control
T/C [4]: 114 % of control
T/C (dose: 200.0 mg/kg/injection, schedule: Q01DX009 (ip), vehicle: saline with Tween-80): 104 % of control
T/C [5]: 101 % of control
T/C [8]: 102 % of control
T/C [6]: 103 % of control

N#CSCc1ccc(Cl)c(CSC#N)c1
T/C (dose: 18.8 mg/kg/injection, schedule: Q01DX009 (ip), vehicle: saline): 108 % of control
T/C (dose: 18.8 mg/kg/injection, schedule: Q04DX003 (ip), vehicle: saline): 103 % of control
T/C (dose: 37.5 mg/kg/injection, schedule: Q01DX009 (ip), vehicle: saline): 108 % of control
T/C (dose: 37.5 mg/kg/injection, schedule: Q04DX003 (ip), vehicle: saline): 105 % of control
T/C (dose: 75.0 mg/kg/injection, schedule: Q01DX001 (ip), vehicle: saline): 96 % of control
T/C (dose: 75.0 mg/kg/injection, schedule: Q01DX009 (ip), vehicle: saline): 108 % of control
T/C (dose: 75.0 mg/kg/injection, schedule: Q04DX003 (ip), vehicle: saline): 109 % of control

CC/C(=N/O)C(N)=O
T/C [4]: 100 % of control
T/C [5]: 103 % of control
T/C [6]: 105 % of control

CN1CCC(CO)C1 (configuration not stated)
T/C (dose: 25.0 mg/kg/injection, schedule: Q01DX009 (ip), vehicle: water): 91 % of control
T/C (dose: 50.0 mg/kg/injection, schedule: Q01DX009 (ip), vehicle: saline): 109 % of control
T/C (dose: 50.0 mg/kg/injection, schedule: Q01DX009 (ip), vehicle: water): 87 % of control
T/C [9]: 101 % of control
T/C (dose: 100.0 mg/kg/injection, schedule: Q01DX009 (ip), vehicle: water): 87 % of control
T/C (dose: 100.0 mg/kg/injection, schedule: Q04DX003 (ip), vehicle: saline): 96 % of control
T/C [10]: 101 % of control
T/C (dose: 200.0 mg/kg/injection, schedule: Q01DX009 (ip), vehicle: water): 89 % of control
T/C (dose: 200.0 mg/kg/injection, schedule: Q04DX003 (ip), vehicle: saline): 97 % of control

OCC(CO)(CO)CO
T/C (dose: 50.0 mg/kg/injection, schedule: Q01DX009 (ip), vehicle: Klucel (hydroxypropylcellulose) (HPC)): 93 % of control
T/C (dose: 100.0 mg/kg/injection, schedule: Q01DX009 (ip), vehicle: Klucel (hydroxypropylcellulose) (HPC)): 93 % of control
T/C (dose: 200.0 mg/kg/injection, schedule: Q01DX009 (ip), vehicle: Klucel (hydroxypropylcellulose) (HPC)): 96 % of control

CC(=O)C1(O)Cc2c(O)c3c(c(O)c2C(OC2CC(N)C(O)C(C)O2)C1)C(=O)c1ccccc1C3=O (configuration not stated)
T/C (dose: 0.03 mg/kg/injection, schedule: Q01DX009 (ip), vehicle: water): 104 % of control
T/C (dose: 0.05 mg/kg/injection, schedule: Q01DX009 (ip), vehicle: water): 110 % of control
T/C (dose: 0.1 mg/kg/injection, schedule: Q01DX009 (ip), vehicle: water): 117 % of control
T/C (dose: 0.4 mg/kg/injection, schedule: Q01DX009 (ip), vehicle: water): 151 % of control
T/C (dose: 0.8 mg/kg/injection, schedule: Q01DX009 (ip), vehicle: water): 92 % of control

COC(=O)c1cccc2c1/C(=N/NC(N)=S)c1ccccc1-2
T/C (dose: 50.0 mg/kg/injection, schedule: Q01DX001 (ip), vehicle: carboxymethylcellulose (CMC)): 102 % of control
T/C (dose: 100.0 mg/kg/injection, schedule: Q01DX001 (ip), vehicle: carboxymethylcellulose (CMC)): 98 % of control
T/C (dose: 200.0 mg/kg/injection, schedule: Q01DX001 (ip), vehicle: carboxymethylcellulose (CMC)): 102 % of control
T/C (dose: 400.0 mg/kg/injection, schedule: Q01DX001 (ip), vehicle: carboxymethylcellulose (CMC)): 102 % of control
